According to paper PMC11994961, “In Vivo pharmacokinetic interactions of ribociclib with rivaroxaban and apixaban in rats: implications for increased drug exposure and dose adjustments” (Frontiers in Pharmacology, 2025):
Like-named read-outs stand apart in the source and are kept apart here.

Assays:
[1] = Pharmacokinetic study of apixaban in rats, alone and after ribociclib (UPLC-MS/MS plasma levels); format: in vivo, Sprague-Dawley rats; settings: for AUC(0-inf) / Cmax / Tmax / half-life / CL/F / MRT inf / MRT last / Vd/F: po, 0.5 mg/kg; for CL/F: read-out: CLz/F (converted); for MRT inf: read-out: MRT0- ∞; for MRT last: read-out: MRT0-t; for Vd/F: read-out: Vz/F
Method: Experimental animals were randomly divided into nine groups (n = 6, Table 1). Ribociclib was suspended in methylcellulose (MC), rivaroxaban was prepared in hydroxypropyl methylcellulose (HPMC), and apixaban was suspended in 5% DMSO in water. To achieve steady-state blood concentrations, a drug typically requires five to seven half-lives. Based on this principle, ribociclib was administered orally for eight consecutive days, while rivaroxaban and apixaban were administered orally for five consecutive days to ensure steady-state concentrations were reached before further analysis.
Approximately 0.1 mL of blood was collected into heparinized tubes via the orbitalat specified time points before and after the final drug administration. For apixaban, blood samples were collected at 0, 0.083, 0.167, 0.25, 0.333, 0.5, 0.75, 1, 3, 5, 7, 10, and 12 h. For rivaroxaban, sampling was conducted at 0, 0.167, 0.333, 0.5, 0.75, 1.5, 2, 3, 4, 5, 6, 8, 10, 12, and 24 h. For ribociclib, samples were taken at 0, 0.5, 1, 2, 4, 5, 6, 8, 10, 12, 24, and 48 h. Blood samples were centrifuged at 3,500 rpm for 10 min, and the supernatant was collected and stored at −80°C until processing for UPLC-MS/MS.
Apixaban and rivaroxaban concentrations in plasma samples were determined using our previously established UPLC-MS/MS method ([Wang et al., 2023]). Ribociclib concentrations were quantified using an LC-30A UPLC system (Shimadzu, Kyoto, Japan) coupled with a Sciex Triple Quad 5500 tandem quadrupole mass spectrometer (AB Sciex, Framingham, MA, United States) equipped with an electrospray ionization interface. Chromatographic separation was performed using a Welch Boltimate column (2.1 mm × 100 mm, 2.7 μm) maintained at 40°C. The mobile phase was composed of water containing 0.1% formic acid (phase A) and acetonitrile (phase B). The flow rate was held constant at 0.3 mL/min. The gradient elution protocol was as follows: 0–2.5 min, 60% B; 2.5–3.5 min, 60%–90% B; 3.5–5.5 min, 90% B; 5.5–5.6 min, 90%–60% B; 5.6–6.6 min, 60% B. The injection volume was 1 μL.
Pharmacokinetic parameters were calculated based on a non-compartmental model using DAS 2.1.1 Software (Mathematical Pharmacology Professional Committee of China, Shanghai, China). The area under the concentration–time curve (AUC), maximum plasma concentration (Cmax), time to maximum plasma concentration (Tmax), the time required to eliminate half of the plasma drug concentration (t1/2), clearance of drug plasma volume per unit time (CLz/F), apparent volume distribution (Vz/F), mean residence time (MRT) and the absorption rate constant (Ka) are all expressed as mean ± standard deviation (SD). SPSS 25.0 statistical software (SPSS Inc., Chicago, IL, United States) was applied to statistically analyze the mainpharmacokinetic parameters. Shapiro-Wilk test was used to assess whether the data were normally distributed, t test was used for parameters conforming to the normal distribution, and Mann-Whitney U test was used for parameters not conforming to the normal distribution. Statistical comparisons were conducted using a analysis of variance, t-test or nonparametric rank-sum test depending on the data type. A P-value <0.05 was deemed statistically significant.

[2] = set-up: method as in Hindley et al., 2023; settings: ref Hindley et al., 2023; cited from earlier work
[3] = set-up: method as in Wang et al., 2023; settings: rats, with almonertinib; ref Wang et al., 2023; cited from earlier work
[4] = API 0.5 mg/kg after multiple doses of RIBO vs API alone
[5] = Sprague-Dawley, rat, plasma, API 0.5 mg/kg after RIBO 60 mg/kg for 8 days
[6] = Sprague-Dawley, rat, plasma, oral API 0.5 mg/kg alone

AUC(0-t) ([1]; API 0.5 mg/kg after RIBO 60 mg/kg for 8 days): 608.21 ± 196.17 ng·h/mL
CLz/F was decreased by [1, 4]: 32.23%
difference in AUC0-t [1, 4]: not statistically significant
difference in Cmax [1, 4]: not statistically significant
difference in Tmax [1, 4]: not statistically significant
increase of MRT0- ∞ [1, 4]: 61.41%
increase of MRT0-t [1, 4]: 14.45%
increase of t1/2z [1, 4]: 115.90%
AUC(0-t) ([1]; Sprague-Dawley, rat, plasma, oral API 0.5 mg/kg alone, read-out: AUC0-t): 409 ± 55.3 ng·h/mL
AUC(0-inf) [1, 5]: 675 ± 221 ng·h/mL
Cmax [1, 5]: 156 ± 42.4 ng/mL
Tmax [1, 5]: 0.75 ± 0.16 h
half-life [1, 5]: 5.16 ± 3.22 h
CL/F [1, 5]: 13.7 mL/min/kg
MRT inf [1, 5]: 4.81 ± 2.07 h
MRT last [1, 5]: 3.01 ± 0.3 h
Vd/F [1, 5]: 5.57 ± 2.63 L/kg
AUC(0-inf) [1, 6]: 420 ± 54.2 ng·h/mL
Cmax [1, 6]: 140 ± 29.4 ng/mL
Tmax [1, 6]: 0.88 ± 0.14 h
half-life [1, 6]: 2.39 ± 0.53 h
CL/F [1, 6]: 20.2 mL/min/kg
MRT inf [1, 6]: 2.98 ± 0.32 h
MRT last [1, 6]: 2.63 ± 0.1 h
Vd/F [1, 6]: 4.16 ± 1.07 L/kg
Structure (SMILES): COc1ccc(-n2nc(C(N)=O)c3c2C(=O)N(c2ccc(N4CCCCC4=O)cc2)CC3)cc1 [API, apixaban]
plasma protein binding [2]: approximately 87%
increase in AUC [3]: over three fold increases
increase in Cmax [3]: over three fold increases
